Test results from PubChem BioAssay (NCI).
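Growth conditions: 96-well plates. Treatment: test compound, 48 hours, 5 concentrations. Analysis: linear interpolation between bracketing concentrations; unreached endpoints set to highest concentration. GI50 marks 50% less growth. TGI marks complete inhibition of growth.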

Experiments:
Experiment in all cases: NCI-60 cell line screen, 48 h
NCI-H23 lung = system: NCI-H23 lung
NCI-H460 lung = system: NCI-H460 lung
NCI-H522 lung = system: NCI-H522 lung
NCI/ADR-RES ovarian = system: NCI/ADR-RES ovarian
OVCAR-3 ovarian = system: OVCAR-3 ovarian
OVCAR-4 ovarian = system: OVCAR-4 ovarian
OVCAR-5 ovarian = system: OVCAR-5 ovarian
OVCAR-8 ovarian = system: OVCAR-8 ovarian
PC-3 prostate = system: PC-3 prostate
RPMI-8226 leukemia = system: RPMI-8226 leukemia
RXF 393 renal = system: RXF 393 renal
SF-268 CNS = system: SF-268 CNS
SF-295 CNS = system: SF-295 CNS
SF-539 CNS = system: SF-539 CNS
SK-MEL-2 melanoma = system: SK-MEL-2 melanoma
SK-MEL-28 melanoma = system: SK-MEL-28 melanoma
SK-MEL-5 melanoma = system: SK-MEL-5 melanoma
SK-OV-3 ovarian = system: SK-OV-3 ovarian
SN12C renal = system: SN12C renal
SNB-19 CNS = system: SNB-19 CNS
SNB-75 CNS = system: SNB-75 CNS
SR leukemia = system: SR leukemia
SW-620 colon = system: SW-620 colon
T-47D breast = system: T-47D breast
TK-10 renal = system: TK-10 renal
U251 CNS = system: U251 CNS
UACC-257 melanoma = system: UACC-257 melanoma
UACC-62 melanoma = system: UACC-62 melanoma
UO-31 renal = system: UO-31 renal

## O=C1NC(=O)c2c1c1c3ccccc3ccc1c1[nH]c3ccccc3c21
NCI-H23 lung
  GI50: 699 nM
  TGI: > 100000 nM
NCI-H460 lung
  GI50: 400 nM
  TGI: 24400 nM
NCI-H522 lung
  GI50: 568 nM
  TGI: 15600 nM
NCI/ADR-RES ovarian
  GI50: 1570 nM
  TGI: > 87000 nM
OVCAR-3 ovarian
  GI50: 2430 nM
  TGI: 19300 nM
OVCAR-4 ovarian
  GI50: 1790 nM
  TGI: 19600 nM
OVCAR-5 ovarian
  GI50: 1630 nM
  TGI: > 100000 nM
OVCAR-8 ovarian
  GI50: 1290 nM
  TGI: 24800 nM
PC-3 prostate
  GI50: 420 nM
  TGI: 30400 nM
RPMI-8226 leukemia
  GI50: 500 nM
  TGI: > 100000 nM
RXF 393 renal
  GI50: 317 nM
  TGI: 1840 nM
SF-268 CNS
  GI50: 1430 nM
  TGI: 34300 nM
SF-295 CNS
  GI50: 1610 nM
  TGI: 14600 nM
SF-539 CNS
  GI50: 663 nM
  TGI: 35700 nM
SK-MEL-2 melanoma
  GI50: 1200 nM
  TGI: > 100000 nM
SK-MEL-28 melanoma
  GI50: 911 nM
  TGI: > 100000 nM
SK-MEL-5 melanoma
  GI50: 1160 nM
  TGI: 26600 nM
SK-OV-3 ovarian
  GI50: 354 nM
  TGI: 6430 nM
SN12C renal
  GI50: 516 nM
  TGI: > 88200 nM
SNB-19 CNS
  GI50: 2510 nM
  TGI: 17000 nM
SNB-75 CNS
  GI50: 4020 nM
  TGI: 16600 nM
SR leukemia
  GI50: 169 nM
  TGI: 2920 nM
SW-620 colon
  GI50: 717 nM
  TGI: > 100000 nM
T-47D breast
  GI50: 524 nM
  TGI: > 70900 nM
TK-10 renal
  GI50: 486 nM
  TGI: 11400 nM
U251 CNS
  GI50: 1060 nM
  TGI: 15700 nM
UACC-257 melanoma
  GI50: 3740 nM
  TGI: > 80400 nM
UACC-62 melanoma
  GI50: 749 nM
  TGI: > 62300 nM
UO-31 renal
  GI50: 239 nM
  TGI: 21900 nM
